HELM strings list units from the 5' end as sugar, base in round brackets, then linkage (d deoxyribose, r ribose, m 2'-O-methyl, p phosphodiester). Strings are as the collection lists them; they lack the last nucleoside at the 3' end of the tested compound. [moe] = 2'-O-(2-methoxyethyl) (MOE); [sp] = phosphorothioate linkage; [m5C] = 5-methylcytosine
Biological target: C9ORF72
Experiment: mouse, dose not given
Details: ASO

With “RNA1{[moe](G)[sp].[moe](T)p.[moe](T)p.[moe](A)[sp].d(A)[sp].d(T)[sp].d([m5C])[sp].d(T)[sp].d(T)[sp].d(T)[sp].d(A)[sp].d(T)[sp].[moe]([m5C])p.[moe](A)p.[moe](G)p.[moe](G)[sp].[moe](T)}$$$$ (last 3' nucleoside missing)” as the substance, how does the 3 h FOB score read?
Its 3 h FOB score is 1 score 0-7.

With “RNA1{[moe](T)[sp].[moe]([m5C])p.[moe](T)p.[moe](G)p.[moe](T)p.[moe]([m5C])p.d(T)[sp].d(T)[sp].d(T)[sp].d(G)[sp].d(G)[sp].d(A)[sp].d(G)[sp].d([m5C])[sp].d([m5C])[sp].d([m5C])[sp].[moe](A)p.[moe](A)[sp].[moe](A)}$$$$ (last 3' nucleoside missing)” as the substance, how does the 3 h FOB score read?
Its 3 h FOB score is 4.25 score 0-7.

For “RNA1{[moe]([m5C])[sp].[moe]([m5C])p.[moe](T)p.[moe](A)p.[moe](G)p.[moe]([m5C])[sp].d(G)[sp].d([m5C])[sp].d(G)[sp].d([m5C])[sp].d(G)[sp].d(A)[sp].d([m5C])[sp].d(T)[sp].[moe]([m5C])p.[moe]([m5C])[sp].[moe](T)}$$$$ (last 3' nucleoside missing)”, which 3 h FOB score is on record?
The 3 h FOB score was 6 score 0-7.

Which 3 h FOB score does the source give for “RNA1{[moe](A)[sp].[moe](G)p.[moe](G)p.[moe]([m5C])p.[moe](T)p.[moe](G)p.d([m5C])[sp].d(G)[sp].d(G)[sp].d(T)[sp].d(T)[sp].d(G)[sp].d(T)[sp].d(T)[sp].d(T)[sp].d([m5C])[sp].[moe]([m5C])p.[moe]([m5C])[sp].[moe](T)}$$$$ (last 3' nucleoside missing)” here?
Its 3 h FOB score is 4 score 0-7.

For “RNA1{[moe]([m5C])[sp].[moe](T)p.[moe](G)p.[moe](G)p.[moe](T)p.[moe](T)p.d(A)[sp].d(A)[sp].d(T)[sp].d([m5C])[sp].d(T)[sp].d(T)[sp].d(T)[sp].d(A)[sp].d(T)[sp].d([m5C])[sp].[moe](A)p.[moe](G)[sp].[moe](G)}$$$$ (last 3' nucleoside missing)”, which 3 h FOB score is on record?
Its 3 h FOB score is 0 score 0-7.

How did the 3 h FOB score turn out when “RNA1{[moe]([m5C])[sp].[moe]([m5C])p.[moe](G)p.d(G)[sp].d([m5C])[sp].d([m5C])[sp].d([m5C])[sp].d([m5C])[sp].d(T)[sp].d(A)[sp].d(G)[sp].d([m5C])[sp].d(G)[sp].[moe]([m5C])p.[moe](G)p.[moe]([m5C])p.[moe](G)p.[moe](A)[sp].[moe]([m5C])}$$$$ (last 3' nucleoside missing)” was run?
The 3 h FOB score was 3.25 score 0-7.

“RNA1{[moe](G)[sp].[moe](G)p.[moe]([m5C])p.[moe](T)p.d(G)[sp].d([m5C])[sp].d(G)[sp].d(G)[sp].d(T)[sp].d(T)[sp].d(G)[sp].d(T)[sp].d(T)[sp].[moe](T)p.[moe]([m5C])p.[moe]([m5C])p.[moe]([m5C])[sp].[moe](T)}$$$$ (last 3' nucleoside missing)” was tested. Which 3 h FOB score did it give?
Its 3 h FOB score is 6 score 0-7.

For “RNA1{[moe]([m5C])[sp].[moe](G)p.[moe](G)p.[moe]([m5C])p.d([m5C])[sp].d([m5C])[sp].d([m5C])[sp].d(T)[sp].d(A)[sp].d(G)[sp].d([m5C])[sp].d(G)[sp].d([m5C])[sp].d(G)[sp].[moe]([m5C])p.[moe](G)p.[moe](A)p.[moe]([m5C])[sp].[moe](T)}$$$$ (last 3' nucleoside missing)”, which 3 h FOB score is on record?
Its 3 h FOB score is 1.75 score 0-7.

How did the 3 h FOB score turn out when “RNA1{[moe](G)[sp].[moe]([m5C])p.[moe]([m5C])[sp].d(T)[sp].d(T)[sp].d(A)[sp].d([m5C])[sp].d(T)[sp].d([m5C])[sp].d(T)[sp].d(A)[sp].[moe](G)p.[moe](G)p.[moe](A)p.[moe]([m5C])p.[moe]([m5C])[sp].[moe](A)}$$$$ (last 3' nucleoside missing)” was run?
The 3 h FOB score was 1.25 score 0-7.

With “RNA1{[moe](G)[sp].[moe](G)p.[moe](T)p.d(T)[sp].d(A)[sp].d(A)[sp].d(T)[sp].d([m5C])[sp].d(T)[sp].d(T)[sp].d(T)[sp].d(A)[sp].d(T)[sp].[moe]([m5C])p.[moe](A)p.[moe](G)p.[moe](G)p.[moe](T)[sp].[moe]([m5C])}$$$$ (last 3' nucleoside missing)” as the substance, how does the 3 h FOB score read?
Its 3 h FOB score is 0 score 0-7.

With “RNA1{[moe](A)[sp].[moe](G)p.[moe](G)p.[moe]([m5C])[sp].d(T)[sp].d(G)[sp].d([m5C])[sp].d(G)[sp].d(G)[sp].d(T)[sp].d(T)[sp].d(G)[sp].[moe](T)p.[moe](T)p.[moe](T)p.[moe]([m5C])[sp].[moe]([m5C])}$$$$ (last 3' nucleoside missing)” as the substance, how does the 3 h FOB score read?
The 3 h FOB score was 7 score 0-7.

Which 3 h FOB score does the source give for “RNA1{[moe](A)[sp].[moe](G)p.[moe](G)p.[moe]([m5C])p.[moe](T)p.[moe](G)[sp].d([m5C])[sp].d(G)[sp].d(G)[sp].d(T)[sp].d(T)[sp].d(G)[sp].d(T)[sp].d(T)[sp].[moe](T)p.[moe]([m5C])[sp].[moe]([m5C])}$$$$ (last 3' nucleoside missing)” here?
The 3 h FOB score was 5.25 score 0-7.

For “RNA1{[moe]([m5C])[sp].[moe](G)p.[moe](G)p.[moe]([m5C])[sp].d([m5C])[sp].d([m5C])[sp].d([m5C])[sp].d(T)[sp].d(A)[sp].d(G)[sp].d([m5C])[sp].d(G)[sp].[moe]([m5C])p.[moe](G)p.[moe]([m5C])p.[moe](G)[sp].[moe](A)}$$$$ (last 3' nucleoside missing)”, which 3 h FOB score is on record?
Its 3 h FOB score is 7 score 0-7.

How did the 3 h FOB score turn out when “RNA1{[moe]([m5C])[sp].[moe](G)p.[moe](G)p.[moe]([m5C])p.[moe]([m5C])p.[moe]([m5C])p.d([m5C])[sp].d(T)[sp].d(A)[sp].d(G)[sp].d([m5C])[sp].d(G)[sp].d([m5C])[sp].d(G)[sp].d([m5C])[sp].d(G)[sp].[moe](A)p.[moe]([m5C])[sp].[moe](T)}$$$$ (last 3' nucleoside missing)” was run?
The 3 h FOB score was 1.25 score 0-7.

Which 3 h FOB score does the source give for “RNA1{[moe]([m5C])[sp].[moe]([m5C])p.[moe](G)p.[moe](G)p.[moe]([m5C])p.[moe]([m5C])p.d([m5C])[sp].d([m5C])[sp].d(T)[sp].d(A)[sp].d(G)[sp].d([m5C])[sp].d(G)[sp].d([m5C])[sp].d(G)[sp].d([m5C])[sp].[moe](G)p.[moe](A)[sp].[moe]([m5C])}$$$$ (last 3' nucleoside missing)” here?
Its 3 h FOB score is 3.5 score 0-7.

How did the 3 h FOB score turn out when “RNA1{[moe](T)[sp].[moe](G)p.[moe](G)p.[moe](T)p.d(T)[sp].d(A)[sp].d(A)[sp].d(T)[sp].d([m5C])[sp].d(T)[sp].d(T)[sp].d(T)[sp].d(A)[sp].d(T)[sp].[moe]([m5C])p.[moe](A)p.[moe](G)p.[moe](G)[sp].[moe](T)}$$$$ (last 3' nucleoside missing)” was run?
Its 3 h FOB score is 1 score 0-7.

With “RNA1{[moe]([m5C])[sp].[moe](A)p.[moe](G)p.[moe](G)p.[moe]([m5C])p.[moe](T)p.d(G)[sp].d([m5C])[sp].d(G)[sp].d(G)[sp].d(T)[sp].d(T)[sp].d(G)[sp].d(T)[sp].d(T)[sp].d(T)[sp].[moe]([m5C])p.[moe]([m5C])[sp].[moe]([m5C])}$$$$ (last 3' nucleoside missing)” as the substance, how does the 3 h FOB score read?
Its 3 h FOB score is 2 score 0-7.

With “RNA1{[moe](T)[sp].[moe](G)p.[moe](G)p.[moe](T)p.[moe](T)p.[moe](A)p.[moe](A)p.d(T)[sp].d([m5C])[sp].d(T)[sp].d(T)[sp].d(T)[sp].d(A)[sp].d(T)[sp].d([m5C])[sp].d(A)[sp].d(G)[sp].[moe](G)[sp].[moe](T)}$$$$ (last 3' nucleoside missing)” as the substance, how does the 3 h FOB score read?
The 3 h FOB score was 3.75 score 0-7.

Which 3 h FOB score does the source give for “RNA1{[moe](G)[sp].[moe]([m5C])p.[moe]([m5C])p.[moe](T)p.[moe](T)p.[moe](A)p.[moe]([m5C])p.d(T)[sp].d([m5C])[sp].d(T)[sp].d(A)[sp].d(G)[sp].d(G)[sp].d(A)[sp].d([m5C])[sp].d([m5C])[sp].d(A)[sp].[moe](A)[sp].[moe](G)}$$$$ (last 3' nucleoside missing)” here?
The 3 h FOB score was 3.25 score 0-7.
